Test results: ChEMBL document CHEMBL4507275, “Data for DCP probe BI-2545” (2021)

Assays:
[1] = system: Tyrosine-protein kinase ABL1 (Homo sapiens), P00519 [Y253F]; settings: Compound concentration 1000.0 nM
[2] = target: Tyrosine-protein kinase ABL1 (Homo sapiens) (UniProt P00519); settings: Compound concentration 1000.0 nM
[3] = target: Mitogen-activated protein kinase kinase kinase 5 (Homo sapiens) (UniProt Q99683); settings: Compound concentration 1000.0 nM
[4] = system: Serine/threonine-protein kinase B-raf (Homo sapiens), P15056 [V600E]; settings: Compound concentration 1000.0 nM
[5] = target: Tyrosine-protein kinase BTK (Homo sapiens) (UniProt Q06187); settings: Compound concentration 1000.0 nM
[6] = target: Dual specificity protein kinase CLK4 (Homo sapiens) (UniProt Q9HAZ1); settings: Compound concentration 1000.0 nM
[7] = target: Casein kinase II subunit alpha (Homo sapiens) (UniProt P68400); settings: Compound concentration 1000.0 nM
[8] = target: Epithelial discoidin domain-containing receptor 1 (Homo sapiens) (UniProt Q08345); settings: Compound concentration 1000.0 nM
[9] = system: Epidermal growth factor receptor (Homo sapiens), P00533 [G719S]; settings: Compound concentration 1000.0 nM
[10] = target: Ephrin type-A receptor 4 (Homo sapiens) (UniProt P54764); settings: Compound concentration 1000.0 nM
[11] = system: Fibroblast growth factor receptor 3 (Homo sapiens), P22607 [G697C]; settings: Compound concentration 1000.0 nM
[12] = system: Receptor-type tyrosine-protein kinase FLT3 (Homo sapiens), P36888 [D835Y]; settings: Compound concentration 1000.0 nM
[13] = target: Tyrosine-protein kinase HCK (Homo sapiens) (UniProt P08631); settings: Compound concentration 1000.0 nM
Sequence of Tyrosine-protein kinase HCK (Homo sapiens) (P08631 2-526 limits assumed): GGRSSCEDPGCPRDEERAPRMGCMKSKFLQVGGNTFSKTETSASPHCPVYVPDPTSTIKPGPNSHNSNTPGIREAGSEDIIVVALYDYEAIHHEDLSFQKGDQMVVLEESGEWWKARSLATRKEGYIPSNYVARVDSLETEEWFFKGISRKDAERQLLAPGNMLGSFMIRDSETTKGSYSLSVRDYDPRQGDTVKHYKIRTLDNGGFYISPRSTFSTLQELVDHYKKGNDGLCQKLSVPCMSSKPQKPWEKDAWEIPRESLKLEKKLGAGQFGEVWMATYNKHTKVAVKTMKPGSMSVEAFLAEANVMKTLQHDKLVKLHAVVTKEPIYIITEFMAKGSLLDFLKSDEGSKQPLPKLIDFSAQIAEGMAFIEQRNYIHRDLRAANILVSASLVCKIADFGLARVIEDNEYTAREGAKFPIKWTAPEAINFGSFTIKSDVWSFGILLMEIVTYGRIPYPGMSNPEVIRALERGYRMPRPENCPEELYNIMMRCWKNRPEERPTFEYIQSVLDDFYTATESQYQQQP

[14] = target: Homeodomain-interacting protein kinase 3 (Homo sapiens) (UniProt Q9H422); settings: Compound concentration 1000.0 nM
[15] = target: Hormonally up-regulated neu tumor-associated kinase (Homo sapiens) (UniProt P57058); settings: Compound concentration 1000.0 nM
[16] = target: Tyrosine-protein kinase JAK3 (Homo sapiens) (UniProt P52333); settings: Compound concentration 1000.0 nM
Sequence of Tyrosine-protein kinase JAK3 (Homo sapiens) (P52333 whole entry): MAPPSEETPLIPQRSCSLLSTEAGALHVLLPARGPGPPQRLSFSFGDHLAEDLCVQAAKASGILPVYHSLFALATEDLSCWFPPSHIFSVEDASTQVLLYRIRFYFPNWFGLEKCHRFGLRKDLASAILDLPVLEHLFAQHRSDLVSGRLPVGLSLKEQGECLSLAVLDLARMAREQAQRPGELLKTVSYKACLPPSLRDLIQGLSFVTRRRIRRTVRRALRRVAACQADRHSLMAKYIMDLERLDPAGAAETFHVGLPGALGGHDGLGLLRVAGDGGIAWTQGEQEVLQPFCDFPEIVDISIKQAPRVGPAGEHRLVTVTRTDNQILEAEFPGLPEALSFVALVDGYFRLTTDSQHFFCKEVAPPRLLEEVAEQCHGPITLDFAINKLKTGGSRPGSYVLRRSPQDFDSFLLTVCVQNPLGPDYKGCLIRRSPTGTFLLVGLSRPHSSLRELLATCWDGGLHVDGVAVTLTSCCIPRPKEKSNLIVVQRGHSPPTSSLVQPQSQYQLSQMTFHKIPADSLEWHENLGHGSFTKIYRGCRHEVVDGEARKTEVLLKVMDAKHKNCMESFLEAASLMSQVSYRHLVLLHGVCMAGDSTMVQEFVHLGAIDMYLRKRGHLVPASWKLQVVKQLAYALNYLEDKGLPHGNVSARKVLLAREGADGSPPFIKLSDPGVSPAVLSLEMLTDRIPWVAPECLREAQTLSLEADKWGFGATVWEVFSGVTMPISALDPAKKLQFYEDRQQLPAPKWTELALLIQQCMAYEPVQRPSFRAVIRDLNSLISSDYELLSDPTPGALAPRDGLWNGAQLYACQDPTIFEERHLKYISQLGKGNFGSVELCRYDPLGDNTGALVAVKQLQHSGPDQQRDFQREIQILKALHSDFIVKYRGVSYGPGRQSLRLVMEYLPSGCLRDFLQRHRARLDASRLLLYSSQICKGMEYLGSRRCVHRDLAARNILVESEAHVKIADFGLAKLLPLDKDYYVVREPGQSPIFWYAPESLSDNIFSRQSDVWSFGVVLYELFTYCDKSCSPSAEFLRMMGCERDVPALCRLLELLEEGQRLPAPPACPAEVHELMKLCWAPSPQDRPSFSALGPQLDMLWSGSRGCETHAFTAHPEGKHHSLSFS

[17] = target: Serine/threonine-protein kinase PAK 2 (Homo sapiens) (UniProt Q13177); settings: Compound concentration 1000.0 nM
[18] = target: Calcium-dependent protein kinase 1 (Plasmodium falciparum) (UniProt P62344); settings: Compound concentration 1000.0 nM
[19] = system: Phosphatidylinositol 4,5-bisphosphate 3-kinase catalytic subunit alpha isoform (Homo sapiens), P42336 [E542K]; settings: Compound concentration 1000.0 nM
[20] = target: Phosphatidylinositol 4-phosphate 5-kinase type-1 gamma (Homo sapiens) (UniProt O60331); settings: Compound concentration 1000.0 nM
Sequence of Phosphatidylinositol 4-phosphate 5-kinase type-1 gamma (Homo sapiens) (O60331 whole entry): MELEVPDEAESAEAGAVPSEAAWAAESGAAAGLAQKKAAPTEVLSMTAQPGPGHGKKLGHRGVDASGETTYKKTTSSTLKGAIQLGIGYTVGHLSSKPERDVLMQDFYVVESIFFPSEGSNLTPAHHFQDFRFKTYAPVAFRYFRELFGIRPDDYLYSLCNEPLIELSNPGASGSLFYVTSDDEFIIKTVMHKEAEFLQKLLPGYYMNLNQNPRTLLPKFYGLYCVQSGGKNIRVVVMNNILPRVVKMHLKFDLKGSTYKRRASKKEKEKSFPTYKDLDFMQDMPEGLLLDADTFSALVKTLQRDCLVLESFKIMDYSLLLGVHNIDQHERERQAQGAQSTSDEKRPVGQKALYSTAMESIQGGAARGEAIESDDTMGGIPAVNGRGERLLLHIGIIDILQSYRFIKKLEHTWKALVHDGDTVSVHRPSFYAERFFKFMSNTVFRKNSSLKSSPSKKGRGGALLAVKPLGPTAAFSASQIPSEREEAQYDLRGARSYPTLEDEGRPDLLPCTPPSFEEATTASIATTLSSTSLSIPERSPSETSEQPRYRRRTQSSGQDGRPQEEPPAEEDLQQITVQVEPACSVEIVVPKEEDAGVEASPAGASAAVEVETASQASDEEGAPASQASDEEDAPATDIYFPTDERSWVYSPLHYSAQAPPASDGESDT

[21] = target: Protein kinase C epsilon type (Homo sapiens) (UniProt Q02156); settings: Compound concentration 1000.0 nM
[22] = target: Serine/threonine-protein kinase D1 (Homo sapiens) (UniProt Q15139); settings: Compound concentration 1000.0 nM
[23] = target: cAMP-dependent protein kinase catalytic subunit PRKX (Homo sapiens) (UniProt P51817); settings: Compound concentration 1000.0 nM
[24] = target: Serine/threonine-protein kinase RIO1 (Homo sapiens) (UniProt Q9BRS2); settings: Compound concentration 1000.0 nM
Sequence of Serine/threonine-protein kinase RIO1 (Homo sapiens) (Q9BRS2 whole entry): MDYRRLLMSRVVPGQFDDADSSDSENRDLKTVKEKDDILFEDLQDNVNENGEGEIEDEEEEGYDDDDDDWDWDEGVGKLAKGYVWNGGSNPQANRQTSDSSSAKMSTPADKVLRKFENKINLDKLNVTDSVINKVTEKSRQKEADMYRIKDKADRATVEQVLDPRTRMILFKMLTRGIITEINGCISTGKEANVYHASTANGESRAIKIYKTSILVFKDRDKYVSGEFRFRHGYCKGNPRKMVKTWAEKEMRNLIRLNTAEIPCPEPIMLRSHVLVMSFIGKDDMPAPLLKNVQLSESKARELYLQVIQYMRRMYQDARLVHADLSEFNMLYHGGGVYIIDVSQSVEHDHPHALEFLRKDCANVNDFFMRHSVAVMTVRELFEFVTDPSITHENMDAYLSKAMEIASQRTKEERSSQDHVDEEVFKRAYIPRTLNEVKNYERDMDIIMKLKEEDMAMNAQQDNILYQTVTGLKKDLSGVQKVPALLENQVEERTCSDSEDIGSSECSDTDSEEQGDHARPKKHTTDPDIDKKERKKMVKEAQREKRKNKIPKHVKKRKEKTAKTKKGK

[25] = target: Serine/threonine-protein kinase RIO2 (Homo sapiens) (UniProt Q9BVS4); settings: Compound concentration 1000.0 nM
[26] = target: Receptor-interacting serine/threonine-protein kinase 2 (Homo sapiens) (UniProt O43353); settings: Compound concentration 1000.0 nM
Sequence of Receptor-interacting serine/threonine-protein kinase 2 (Homo sapiens) (O43353 whole entry): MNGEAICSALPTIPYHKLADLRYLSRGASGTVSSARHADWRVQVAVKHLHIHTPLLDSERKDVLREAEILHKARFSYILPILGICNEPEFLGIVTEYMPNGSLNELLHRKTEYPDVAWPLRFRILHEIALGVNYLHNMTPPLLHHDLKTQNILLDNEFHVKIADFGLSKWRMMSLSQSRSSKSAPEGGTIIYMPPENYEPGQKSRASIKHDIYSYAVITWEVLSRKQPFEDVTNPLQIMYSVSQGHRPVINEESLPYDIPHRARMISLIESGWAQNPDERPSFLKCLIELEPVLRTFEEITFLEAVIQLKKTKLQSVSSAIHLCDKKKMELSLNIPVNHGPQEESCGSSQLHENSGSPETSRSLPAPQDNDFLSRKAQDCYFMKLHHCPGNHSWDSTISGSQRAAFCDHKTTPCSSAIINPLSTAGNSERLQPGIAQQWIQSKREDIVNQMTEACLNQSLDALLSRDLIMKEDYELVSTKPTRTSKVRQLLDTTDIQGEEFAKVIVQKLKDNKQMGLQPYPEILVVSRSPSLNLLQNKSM

[27] = target: Ribosomal protein S6 kinase alpha-4 (Homo sapiens) (UniProt O75676); settings: Compound concentration 1000.0 nM
[28] = target: Serine/threonine-protein kinase SBK1 (Homo sapiens) (UniProt Q52WX2); settings: Compound concentration 1000.0 nM
[29] = target: Serine/threonine-protein kinase Sgk2 (Homo sapiens) (UniProt Q9HBY8); settings: Compound concentration 1000.0 nM
[30] = target: Serine/threonine-protein kinase Sgk3 (Homo sapiens) (UniProt Q96BR1); settings: Compound concentration 1000.0 nM
[31] = target: Serine/threonine-protein kinase 35 (Homo sapiens) (UniProt Q8TDR2); settings: Compound concentration 1000.0 nM
[32] = target: Serine/threonine-protein kinase TAO2 (Homo sapiens) (UniProt Q9UL54); settings: Compound concentration 1000.0 nM
[33] = target: Activated CDC42 kinase 1 (Homo sapiens) (UniProt Q07912); settings: Compound concentration 1000.0 nM
[34] = target: Non-receptor tyrosine-protein kinase TYK2 (Homo sapiens) (UniProt P29597); settings: Compound concentration 1000.0 nM
Sequence of Non-receptor tyrosine-protein kinase TYK2 (Homo sapiens) (P29597 whole entry): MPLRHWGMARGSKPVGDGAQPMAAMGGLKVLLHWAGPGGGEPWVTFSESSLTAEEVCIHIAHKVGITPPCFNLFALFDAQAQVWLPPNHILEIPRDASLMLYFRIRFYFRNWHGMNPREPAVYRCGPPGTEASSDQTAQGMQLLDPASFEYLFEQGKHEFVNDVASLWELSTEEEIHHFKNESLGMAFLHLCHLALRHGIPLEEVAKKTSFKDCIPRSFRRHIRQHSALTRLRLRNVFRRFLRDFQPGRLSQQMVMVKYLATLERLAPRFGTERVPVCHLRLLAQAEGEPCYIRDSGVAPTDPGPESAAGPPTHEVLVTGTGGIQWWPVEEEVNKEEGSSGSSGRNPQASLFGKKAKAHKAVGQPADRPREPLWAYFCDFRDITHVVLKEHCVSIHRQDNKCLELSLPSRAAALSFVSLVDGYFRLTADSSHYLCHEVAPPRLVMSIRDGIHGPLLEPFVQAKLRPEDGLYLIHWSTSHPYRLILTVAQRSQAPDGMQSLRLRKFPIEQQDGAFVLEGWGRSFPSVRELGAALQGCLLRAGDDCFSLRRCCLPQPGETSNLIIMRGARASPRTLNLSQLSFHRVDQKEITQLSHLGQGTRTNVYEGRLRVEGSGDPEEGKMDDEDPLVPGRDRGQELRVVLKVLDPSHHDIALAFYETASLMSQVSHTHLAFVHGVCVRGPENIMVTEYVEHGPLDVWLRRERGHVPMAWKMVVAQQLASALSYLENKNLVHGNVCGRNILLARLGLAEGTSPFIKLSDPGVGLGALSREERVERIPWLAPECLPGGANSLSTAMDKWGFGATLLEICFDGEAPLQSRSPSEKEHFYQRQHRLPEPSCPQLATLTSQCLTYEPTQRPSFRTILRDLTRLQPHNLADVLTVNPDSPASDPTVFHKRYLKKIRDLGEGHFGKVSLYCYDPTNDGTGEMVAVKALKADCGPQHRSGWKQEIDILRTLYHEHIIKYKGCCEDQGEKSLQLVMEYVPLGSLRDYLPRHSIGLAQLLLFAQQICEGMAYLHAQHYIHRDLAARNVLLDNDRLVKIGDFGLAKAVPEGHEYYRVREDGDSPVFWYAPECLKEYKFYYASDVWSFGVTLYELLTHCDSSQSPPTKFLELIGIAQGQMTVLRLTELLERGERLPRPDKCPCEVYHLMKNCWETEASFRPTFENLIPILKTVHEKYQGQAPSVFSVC

[35] = target: Serine/threonine-protein kinase VRK2 (Homo sapiens) (UniProt Q86Y07); settings: Compound concentration 1000.0 nM
[36] = target: Wee1-like protein kinase 2 (Homo sapiens) (UniProt P0C1S8); settings: Compound concentration 1000.0 nM
[37] = target: T1, 5-hydroxytryptamine receptor 1A (Homo sapiens) (UniProt P08908); settings: Compound concentration 10.0 uM
T1 sequence (whole entry): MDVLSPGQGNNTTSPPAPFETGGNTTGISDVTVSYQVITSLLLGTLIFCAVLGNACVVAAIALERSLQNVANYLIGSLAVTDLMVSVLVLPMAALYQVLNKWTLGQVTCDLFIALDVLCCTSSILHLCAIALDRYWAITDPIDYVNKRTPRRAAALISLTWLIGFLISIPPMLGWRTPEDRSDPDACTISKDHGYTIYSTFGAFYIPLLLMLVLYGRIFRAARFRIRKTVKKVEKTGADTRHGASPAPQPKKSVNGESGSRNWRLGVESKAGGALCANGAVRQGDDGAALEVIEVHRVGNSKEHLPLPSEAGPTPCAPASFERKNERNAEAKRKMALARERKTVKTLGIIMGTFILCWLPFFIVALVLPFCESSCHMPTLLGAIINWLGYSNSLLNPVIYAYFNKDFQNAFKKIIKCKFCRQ

[38] = target: D(3) dopamine receptor (Homo sapiens) (UniProt P35462); settings: Compound concentration 10.0 uM
[39] = target: Histamine H2 receptor (Homo sapiens) (UniProt P25021); settings: Compound concentration 10.0 uM
Sequence of Histamine H2 receptor (Homo sapiens) (P25021 whole entry): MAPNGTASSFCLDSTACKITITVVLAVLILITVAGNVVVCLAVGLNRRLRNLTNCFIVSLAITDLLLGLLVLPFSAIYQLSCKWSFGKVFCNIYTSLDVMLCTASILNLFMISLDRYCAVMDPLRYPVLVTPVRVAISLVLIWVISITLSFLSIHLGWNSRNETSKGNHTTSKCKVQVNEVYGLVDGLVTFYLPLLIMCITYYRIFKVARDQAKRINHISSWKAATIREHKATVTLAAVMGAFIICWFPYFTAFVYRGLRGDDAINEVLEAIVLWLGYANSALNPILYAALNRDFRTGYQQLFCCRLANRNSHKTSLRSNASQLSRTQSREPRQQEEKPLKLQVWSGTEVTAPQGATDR

Rattus norvegicus = organism: Rattus norvegicus; settings: Compound concentration 10.0 uM

O=C(NC[C@@H]1[C@H]2CN(C(=O)OCc3cc(C(F)(F)F)cc(C(F)(F)F)c3)C[C@@H]12)c1ccc2[nH]nnc2c1 [BI 2545]
residual activity [1]: 95%
residual activity [2]: 87%
residual activity [3]: 13%
residual activity [4]: 100%
residual activity [5]: 100%
residual activity [6]: 98%
residual activity [7]: 84%
residual activity [8]: 83%
residual activity [9]: 100%
residual activity [10]: 82%
residual activity [11]: 92%
residual activity [12]: 100%
residual activity [13]: 100%
residual activity [14]: 89%
residual activity [15]: 100%
residual activity [16]: 69%
residual activity [17]: 100%
residual activity [18]: 99%
residual activity [19]: 75%
residual activity [20]: 98%
residual activity [21]: 100%
residual activity [22]: 100%
residual activity [23]: 86%
residual activity [24]: 69%
residual activity [25]: 94%
residual activity [26]: 64%
residual activity [27]: 86%
residual activity [28]: 97%
residual activity [29]: 66%
residual activity [30]: 84%
residual activity [31]: 100%
residual activity [32]: 86%
residual activity [33]: 100%
residual activity [34]: 100%
residual activity [35]: 100%
residual activity [36]: 93%
inhibition [37]: 0.91%
inhibition [38]: 6.61%
inhibition [39]: 28.1%
inhibition (Rattus norvegicus): 63.7%

Cc1nccc(COC(=O)N2C[C@@H]3[C@@H](CNC(=O)c4ccc5[nH]nnc5c4)[C@@H]3C2)n1 [BI 3017]
residual activity [1]: 93%
residual activity [2]: 91%
residual activity [3]: 95%
residual activity [4]: 100%
residual activity [5]: 99%
residual activity [6]: 97%
residual activity [7]: 81%
residual activity [8]: 100%
residual activity [9]: 100%
residual activity [10]: 98%
residual activity [11]: 97%
residual activity [12]: 100%
residual activity [13]: 99%
residual activity [14]: 76%
residual activity [15]: 81%
residual activity [16]: 96%
residual activity [17]: 100%
residual activity [18]: 100%
residual activity [19]: 86%
residual activity [20]: 93%
residual activity [21]: 100%
residual activity [22]: 100%
residual activity [23]: 100%
residual activity [24]: 100%
residual activity [25]: 97%
residual activity [26]: 100%
residual activity [27]: 90%
residual activity [28]: 93%
residual activity [29]: 100%
residual activity [30]: 100%
residual activity [31]: 83%
residual activity [32]: 91%
residual activity [33]: 100%
residual activity [34]: 82%
residual activity [35]: 29%
residual activity [36]: 100%
inhibition [37]: -7.66%
inhibition [38]: 1.07%
inhibition [39]: -0.15%
inhibition (Rattus norvegicus): -4.4%
